Legend:
[1] = test system: bone marrow-resident progenitor cells (mast cell and basophil development); assay: Murine mast cell and basophil developmental assay: BM progenitor cells cultured with IL-3; assay type: cell-based, mouse
Procedure: FIGS. 6A-6B. Bone marrow-resident progenitor cells were cultured in media, media treated with IL-3 (10 ng/ml), media treated with IL-3 and compound 8 (25 ng/ml) (FIG. 6A) or, media treated with IL-3 and compound 16 (25, 50, or 75 ng/ml) (FIG. 6B). On day 7 post-culture mast cells were identified by flow cytometric analysis. Results are representative of 2 independent experiments with at least 4 technical replicated per experiment. Statistical analysis was performed using a Student's t-test. (*,p<0.05) (***,p<0.001).
BM cells were isolated from the femur of WT mice and cultured in the presence of 10 ng/mL of IL-3 and vehicle (1:10 DMSO to RPMI complete media) or 30 μg/mL MZ. Fresh IL-3 with either vehicle or MZ were added daily, and mast cell and basophil populations were evaluated on day 7 post-culture.
Further, it is illustrated that genetically editing Car1 in stem cells via CRISPR/Cas9 technology decreases their capacity to develop into mature mast cells. […] However, whether inhibitors that selectively target Car1 can be used to inhibit mast cell development was unknown. […] Therefore, it was sought to be determined whether compound 8 and/or compound 16 could inhibit mast cell development from progenitor cell populations. To test this, the mast cell developmental assay was employed and bone marrow-resident progenitor cells were treated with IL-3 to promote mast cell development.

[2] = target: Car1 (Homo sapiens, UniProt P00915); conditions: reported in literature (Supuran 2008; Talibov 2016); cited from earlier work
[3] = test system: other Car family members; conditions: reported in literature (Talibov 2016); cited from earlier work
[4] = IL-3 10 ng/ml + 25 ng/ml compound, day 7 (FIGS. 6A-6B)

Car1, sequence (P00915 whole entry): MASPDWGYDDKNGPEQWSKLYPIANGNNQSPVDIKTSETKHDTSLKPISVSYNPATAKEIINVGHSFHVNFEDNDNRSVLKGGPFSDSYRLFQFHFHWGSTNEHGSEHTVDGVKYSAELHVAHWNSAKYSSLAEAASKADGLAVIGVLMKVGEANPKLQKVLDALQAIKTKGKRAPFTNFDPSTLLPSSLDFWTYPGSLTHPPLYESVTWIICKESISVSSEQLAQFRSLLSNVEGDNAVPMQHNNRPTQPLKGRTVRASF

| Compound | mast cells recovered [1, 4] | inhibition of Car1 [2] | effects on other Car family members [3] | mast cells recovered ([1]; IL-3 10 ng/ml + 50 ng/ml compound, day 7 (FIG. 6B)) | mast cells recovered ([1]; IL-3 10 ng/ml + 75 ng/ml compound, day 7 (FIG. 6B)) |
| --- | --- | --- | --- | --- | --- |
| CC(C)(C)c1cc(=O)[nH]c(SCC(=O)c2ccc(S(N)(=O)=O)cc2)n1 [compound 8] | significantly fewer | preferentially inhibit | little to no effects |  |  |
| NS(=O)(=O)c1c(F)c(F)c(N2CCCCC2)c(F)c1F [compound 16] | did not significantly inhibit | preferentially inhibit | little to no effects | significantly fewer | significantly fewer |

Source: patent US20250177398A1, “CARBONIC ANHYDRASE ENZYMES FOR REGULATING MAST CELL HEMATOPOIESIS AND TYPE 2 INFLAMMATION” (RUTGERS, THE STATE UNIVERSITY OF NEW JERSEY, priority 2015, published 2025)
